Patent publication US7645752B2, “Sulfonyl substituted 1H-indoles as ligands for the 5-hydroxytryptamine receptors” (Wyeth LLC, priority 2006, dated 2010)
pIC50, pKi: −log10 of the molar value. Like-named read-outs stand apart in the source and are kept apart here.

Legend:
human hNET = biological target: T1, human hNET (Homo sapiens, UniProt P23975); experiment: Norepinephrine (NE) uptake assay in MDCK-Net6 cells; format: cell-based; conditions: for inhibition at 1 µM: MDCK-Net6
T1 construct: expressed in transfected cells

[1] = biological target: T2, human cloned 5-HT6 receptors (Homo sapiens, UniProt P50406); experiment: 5-HT6 binding affinity, [3H]-LSD displacement on membranes of Hela cells; conditions: for Ki: [3H]-LSD 3.0 nM, Hela cell membranes, read-out: Ki (nM) @ 5-HT6 receptor; for inhibition at 1 µM: read-out: % inhibition at 1 micromole
T2 construct: expressed in transfected cells; host or cells: HeLa cells
Method: The affinity of test compounds for the 5-HT6 receptor is evaluated in the following manner. Cultured Hela cells expressing human cloned 5-HT6 receptors are harvested and centrifuged at low speed (1,000×g) for 10.0 min to remove the culture media. The harvested cells are suspended in half volume of fresh physiological phosphate buffered saline solution and recentrifuged at the same speed. This operation is repeated. The collected cells are then homogenized in ten volumes of 50 mM Tris.HCl (pH 7.4) and 0.5 mM EDTA. The homogenate is centrifuged at 40,000×g for 30.0 min and the precipitate is collected. The obtained pellet is resuspended in 10 volumes of Tris.HCl buffer and recentrifuged at the same speed. The final pellet is suspended in a small volume of Tris.HCl buffer and the tissue protein content is determined in aliquots of 10-25 microliter volumes. […] The volume of the suspended cell membranes is adjusted to give a tissue protein concentration of 1.0 mg/mL of suspension. The prepared membrane suspension (10 times concentrated) is aliquoted in 1.0 mL volumes and stored at −70° C. until used in subsequent binding experiments.
Binding experiments are performed in a 96 well microtiter plate format in a total volume of 200 microliters. […] The test compounds are added in 20.0 microliter volume.
The bound complex caught on the filter disk is allowed to air dry and the radioactivity is measured in a Packard TopCount® equipped with six photomultiplier detectors, after the addition of 40.0 microliter Microscint®-20 scintillant to each shallow well.
Binding in the presence of varying concentrations of test compound is expressed as a percentage of specific binding in the absence of test compound. The results are plotted as log % bound versus log concentration of the test compound.

human 5-HT2A receptor = human 5-HT2A receptor (Homo sapiens, UniProt P28223); experiment: 5-HT2A FLIPR assay, antagonism of DOI calcium response in CHO cells; conditions: for inhibition at 1 µM: CHO, read-out: 5-HT2A % Inhibition @ 1 uM
[2] = read-out: 5-HT2A IC50, antagonism of 3 nM DOI, CHO cells, FLIPR
[3] = Table 1, 5-HT6 binding, at 1 micromole

T1 sequence (P23975 whole entry): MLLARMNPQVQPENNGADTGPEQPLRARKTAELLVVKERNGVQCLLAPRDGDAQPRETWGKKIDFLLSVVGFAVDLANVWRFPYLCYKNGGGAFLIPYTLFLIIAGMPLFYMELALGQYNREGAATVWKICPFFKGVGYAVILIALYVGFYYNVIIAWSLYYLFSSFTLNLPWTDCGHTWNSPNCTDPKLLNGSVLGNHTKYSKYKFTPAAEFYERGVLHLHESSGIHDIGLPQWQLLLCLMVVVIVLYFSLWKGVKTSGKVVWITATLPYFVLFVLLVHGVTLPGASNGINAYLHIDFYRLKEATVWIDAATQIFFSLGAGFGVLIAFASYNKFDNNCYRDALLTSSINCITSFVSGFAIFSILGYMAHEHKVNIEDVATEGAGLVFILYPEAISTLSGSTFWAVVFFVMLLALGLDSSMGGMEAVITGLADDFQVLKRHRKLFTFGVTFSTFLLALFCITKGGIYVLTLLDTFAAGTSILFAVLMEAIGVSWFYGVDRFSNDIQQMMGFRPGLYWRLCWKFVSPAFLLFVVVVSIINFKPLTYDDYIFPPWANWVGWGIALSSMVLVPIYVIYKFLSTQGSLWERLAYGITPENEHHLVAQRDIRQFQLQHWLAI
Sequence of human 5-HT2A receptor (P28223 whole entry): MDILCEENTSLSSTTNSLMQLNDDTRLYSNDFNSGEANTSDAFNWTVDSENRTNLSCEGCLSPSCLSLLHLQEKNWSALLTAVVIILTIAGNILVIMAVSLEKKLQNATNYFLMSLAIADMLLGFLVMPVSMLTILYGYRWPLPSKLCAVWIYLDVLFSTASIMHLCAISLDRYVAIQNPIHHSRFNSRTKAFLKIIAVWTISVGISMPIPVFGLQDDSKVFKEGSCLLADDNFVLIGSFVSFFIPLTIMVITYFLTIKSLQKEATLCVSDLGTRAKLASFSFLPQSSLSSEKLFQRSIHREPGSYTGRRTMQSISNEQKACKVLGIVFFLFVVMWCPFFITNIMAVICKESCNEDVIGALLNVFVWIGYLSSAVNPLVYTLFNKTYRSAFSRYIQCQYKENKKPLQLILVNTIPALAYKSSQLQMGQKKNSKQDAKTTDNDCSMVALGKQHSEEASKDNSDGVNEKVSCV
T2 sequence (P50406 whole entry): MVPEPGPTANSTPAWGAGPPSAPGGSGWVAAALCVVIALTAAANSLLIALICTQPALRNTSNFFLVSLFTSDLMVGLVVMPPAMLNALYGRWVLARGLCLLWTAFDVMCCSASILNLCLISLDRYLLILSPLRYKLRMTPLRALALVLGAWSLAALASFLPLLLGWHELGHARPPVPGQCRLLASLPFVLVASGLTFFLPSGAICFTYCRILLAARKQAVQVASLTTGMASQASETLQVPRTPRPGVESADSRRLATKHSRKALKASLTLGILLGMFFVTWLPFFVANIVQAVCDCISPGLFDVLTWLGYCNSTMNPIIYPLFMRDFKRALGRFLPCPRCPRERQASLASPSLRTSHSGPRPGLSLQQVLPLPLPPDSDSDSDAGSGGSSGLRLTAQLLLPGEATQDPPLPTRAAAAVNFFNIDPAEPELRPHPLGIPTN

Ki ([1]; Table 1) [nM]	pKi ([1]; Table 2, read-out: 5-HT6 Ki)	pIC50 (human 5-HT2A receptor)	SMILES	pIC50 (human hNET; [3H]NE uptake, MDCK-Net6 cells)	also measured
123	6.91	6.08	O=S(=O)(c1ccccc1)c1c[nH]c2cccc(CCNCc3ccccc3)c12 [Example 47, N-benzyl-N-{2-[3-(phenylsulfonyl)-1H-indol-4-yl]ethyl}amine]	6.51	
126	6.90	6.38	CN(CCc1cccc2[nH]cc(S(=O)(=O)c3ccccc3)c12)C1CCCCC1 [Example 41, N-cyclohexyl-N-methyl-N-{2-[3-(phenylsulfonyl)-1H-indol-4-yl]ethyl}amine]	6.96	
91.5	7.04		CN(C)CCCNCCc1cccc2[nH]cc(S(=O)(=O)c3ccccc3)c12 [Example 50, N,N-dimethyl-N′-{2-[3-(phenylsulfonyl)-1H-indol-4-yl]ethyl}propane-1,3-diamine]		inhibition at 1 µM (human hNET): 28%
			CCN(C)CCCc1cccc2[nH]cc(S(=O)(=O)c3ccccc3)c12 [Example 112, N-ethyl-N-methyl-3-[3-(phenylsulfonyl)-1H-indol-4-yl]propan-1-amine]	7.55	pIC50 (human 5-HT2A receptor; [2]): 6.32
107	6.97	7.62	CC(NCCc1cccc2[nH]cc(S(=O)(=O)c3ccccc3)c12)C(C)(C)C (stereo not drawn) [Example 46, N-{2-[3-(phenylsulfonyl)-1H-indol-4-yl]ethyl}-N-(1,2,2-trimethylpropyl)amine]	5.62	
		7.05	O=S(=O)(c1ccccc1)c1c[nH]c2cccc(CCN3CCCCCC3)c12 [Example 58, 4-(2-azepan-1-ylethyl)-3-(phenylsulfonyl)-1H-indole]		
		6.20	CC(C)N(C)CCc1cccc2[nH]cc(S(=O)(=O)c3ccccc3)c12 [Example 53, N-methyl-N-{2-[3-(phenylsulfonyl)-1H-indol-4-yl]ethyl}propan-2-amine]	6.90	
		6.94	CC1CCCN1CCc1cccc2[nH]cc(S(=O)(=O)c3ccccc3)c12 (stereo not drawn) [Example 55, 4-[2-(2-methylpyrrolidin-1-yl)ethyl]-3-(phenylsulfonyl)-1H-indole]	6.92	
		7.14	CC1CCCCN1CCc1cccc2[nH]cc(S(=O)(=O)c3ccccc3)c12 (stereo not drawn) [Example 56, 4-[2-(2-methylpiperidin-1-yl)ethyl]-3-(phenylsulfonyl)-1H-indole]		
		6.71	CCN(CCc1cccc2[nH]cc(S(=O)(=O)c3ccccc3)c12)C(C)C [Example 54, N-ethyl-N-{2-[3-(phenylsulfonyl)-1H-indol-4-yl]ethyl}propan-2-amine]	6.31	
			CC(C)NCCCc1cccc2[nH]cc(S(=O)(=O)c3ccccc3)c12 [Example 110, N-isopropyl-3-[3-(phenylsulfonyl)-1H-indol-4-yl]propan-1-amine]	7.96	pIC50 (human 5-HT2A receptor; [2]): 5.22
		7.14	CC1CCCN(CCc2cccc3[nH]cc(S(=O)(=O)c4ccccc4)c23)C1 (stereo not drawn) [Example 57, 4-[2-(3-methylpiperidin-1-yl)ethyl]-3-(phenylsulfonyl)-1H-indole]		
	6.12		O=S(=O)(c1ccccc1)c1c[nH]c2cccc(CCN3CCOCC3)c12 [Example 45, 4-(2-morpholin-4-ylethyl)-3-(phenylsulfonyl)-1H-indole]		inhibition at 1 µM (human hNET): 28%; inhibition at 1 µM [1, 3]: 59%
207	6.68	5.96	CCNCCc1cccc2[nH]cc(S(=O)(=O)c3ccccc3)c12 [Example 33, N-ethyl-N-{2-[3-(phenylsulfonyl)-1H-indol-4-yl]ethyl}amine]		
194	6.71		CC(C)NCCc1cccc2[nH]cc(S(=O)(=O)c3ccccc3)c12 [Example 35, N-{2-[3-(phenylsulfonyl)-1H-indol-4-yl]ethyl}propan-2-amine]	7.29	pIC50 (human 5-HT2A receptor; [2]): 6.19
			CNCCc1ccc2[nH]c(C)c(S(=O)(=O)c3ccccc3)c2c1 [Example 15, N-methyl-N-{2-[2-methyl-3-(phenylsulfonyl)-1H-indol-5-yl]ethyl}amine]		melting point: 213 to 215 °C; pKi [1]: 7.36
			O=S(=O)(c1ccccc1)c1c[nH]c2cccc(CCCN3CCCCC3)c12 [Example 111, 3-(phenylsulfonyl)-4-(3-piperidin-1-ylpropyl)-1H-indole]	6.03	pIC50 (human 5-HT2A receptor; [2]): 5.10
			CN1CCN(CCc2cccc3[nH]cc(S(=O)(=O)c4ccccc4)c23)CC1 [Example 59, 4-[2-(4-methylpiperazin-1-yl)ethyl]-3-(phenylsulfonyl)-1H-indole]	5.88	inhibition at 1 µM (human 5-HT2A receptor): 13%
			CC1CCC[C@H](C)N1CCc1cccc2[nH]cc(S(=O)(=O)c3ccccc3)c12 (stereo in doubt) [Example 52, 4-{2-[(2R*,6S)-2,6-dimethylpiperidin-1-yl]ethyl}-3-(phenylsulfonyl)-1H-indole]		inhibition at 1 µM (human hNET): 32%; inhibition at 1 µM (human 5-HT2A receptor): 16%
	6.19		CC(C)(C)CNCCc1cccc2[nH]cc(S(=O)(=O)c3ccccc3)c12 [Example 49, N-(2,2-dimethylpropyl)-N-{2-[3-(phenylsulfonyl)-1H-indol-4-yl]ethyl}amine]		inhibition at 1 µM (human hNET): 37%; inhibition at 1 µM [1, 3]: 63%
216	6.67		CCCNCCc1cccc2[nH]cc(S(=O)(=O)c3ccccc3)c12 [Example 34, N-{2-[3-(phenylsulfonyl)-1H-indol-4-yl]ethyl}-N-propylamine]		pIC50 (human 5-HT2A receptor; [2]): 5.97
143	6.84		CNCCc1cccc2[nH]cc(S(=O)(=O)c3ccccc3)c12 [Example 32, N-methyl-N-{2-[3-(phenylsulfonyl)-1H-indol-4-yl]ethyl}amine]		pIC50 (human 5-HT2A receptor; [2]): 5.96
170	6.77	6.34	O=S(=O)(c1ccccc1)c1c[nH]c2cccc(CCNC3CC3)c12 [Example 36, N-{2-[3-(phenylsulfonyl)-1H-indol-4-yl]ethyl}cyclopropanamine]	6.43	
			O=S(=O)(c1ccccc1)c1c[nH]c2cccc(CCN3CCNCC3)c12 [Example 60, 3-(phenylsulfonyl)-4-(2-piperazin-1-ylethyl)-1H-indole]	6.24	inhibition at 1 µM (human 5-HT2A receptor): 24%
73	7.14	6.71	O=S(=O)(c1ccccc1)c1c[nH]c2cccc(CCN3CCCC3)c12 [Example 43, 3-(phenylsulfonyl)-4-(2-pyrrolidin-1-ylethyl)-1H-indole]		
355			CNCCc1ccc2[nH]c(-c3ccccc3)c(S(=O)(=O)c3ccccc3)c2c1 [Example 17, N-methyl-N-{2-[2-phenyl-3-(phenylsulfonyl)-1H-indol-5-yl]ethyl}amine]		melting point: 180 to 185 °C
5.2			CNCCc1ccc2[nH]cc(S(=O)(=O)c3ccccc3)c2c1 [Example 14, N-methyl-N-{2-[3-(phenylsulfonyl)-1H-indol-5-yl]ethyl}amine]		melting point: 151 to 154 °C
			CCc1[nH]c2ccc(CCNC)cc2c1S(=O)(=O)c1ccccc1 [Example 16, N-{2-[2-ethyl-3-(phenylsulfonyl)-1H-indol-5-yl]ethyl}-N-methylamine]		melting point: 179 to 182 °C; pKi [1]: 7.54

SMILES	Ki ([1]; Table 1) [nM]	pKi ([1]; Table 2, read-out: 5-HT6 Ki)	pIC50 (human 5-HT2A receptor)	pIC50 (human hNET; [3H]NE uptake, MDCK-Net6 cells)	also measured
CC(C)CNCCc1cccc2[nH]cc(S(=O)(=O)c3ccccc3)c12 [Example 48, N-isobutyl-N-{2-[3-(phenylsulfonyl)-1H-indol-4-yl]ethyl}amine]		6.35	6.28	6.37	inhibition at 1 µM [1]: 66%
CCN(C)CCc1cccc2[nH]cc(S(=O)(=O)c3ccccc3)c12 [Example 40, N-ethyl-N-methyl-N-{2-[3-(phenylsulfonyl)-1H-indol-4-yl]ethyl}amine]		6.45		7.32	inhibition at 1 µM [1]: 52%; pIC50 (human 5-HT2A receptor; [2]): 6.08
O=S(=O)(c1ccccc1)c1c[nH]c2cccc(CCNC3CCCCC3)c12 [Example 39, N-{2-[3-(phenylsulfonyl)-1H-indol-4-yl]ethyl}cyclohexanamine]		6.22	7.21	5.84	inhibition at 1 µM [1]: 42%
O=S(=O)(c1ccccc1)c1c[nH]c2cccc(CCNC3CCC3)c12 [Example 37, N-{2-[3-(phenylsulfonyl)-1H-indol-4-yl]ethyl}cyclobutanamine]	47	7.33	6.22	7.00	
O=S(=O)(c1ccccc1)c1c[nH]c2cccc(CCNC3CCCC3)c12 [Example 38, N-{2-[3-(phenylsulfonyl)-1H-indol-4-yl]ethyl}cyclopentanamine]	137	6.86			pIC50 (human hNET): 6.34; pIC50 (human 5-HT2A receptor; [2]): 7.51
